Data: paper PMC5612938, “A multiple biomarker assay for quality assessment of botanical drugs using a versatile microfluidic chip” (Scientific Reports, 2017)

Molecular target: T1, ACE (from rabbit lung) (Oryctolagus cuniculus, UniProt P12822)
T1 construct: ACE (from rabbit lung); purchased Sigma-Aldrich; host or cells: rabbit lung
T1 sequence (P12822 34-1310): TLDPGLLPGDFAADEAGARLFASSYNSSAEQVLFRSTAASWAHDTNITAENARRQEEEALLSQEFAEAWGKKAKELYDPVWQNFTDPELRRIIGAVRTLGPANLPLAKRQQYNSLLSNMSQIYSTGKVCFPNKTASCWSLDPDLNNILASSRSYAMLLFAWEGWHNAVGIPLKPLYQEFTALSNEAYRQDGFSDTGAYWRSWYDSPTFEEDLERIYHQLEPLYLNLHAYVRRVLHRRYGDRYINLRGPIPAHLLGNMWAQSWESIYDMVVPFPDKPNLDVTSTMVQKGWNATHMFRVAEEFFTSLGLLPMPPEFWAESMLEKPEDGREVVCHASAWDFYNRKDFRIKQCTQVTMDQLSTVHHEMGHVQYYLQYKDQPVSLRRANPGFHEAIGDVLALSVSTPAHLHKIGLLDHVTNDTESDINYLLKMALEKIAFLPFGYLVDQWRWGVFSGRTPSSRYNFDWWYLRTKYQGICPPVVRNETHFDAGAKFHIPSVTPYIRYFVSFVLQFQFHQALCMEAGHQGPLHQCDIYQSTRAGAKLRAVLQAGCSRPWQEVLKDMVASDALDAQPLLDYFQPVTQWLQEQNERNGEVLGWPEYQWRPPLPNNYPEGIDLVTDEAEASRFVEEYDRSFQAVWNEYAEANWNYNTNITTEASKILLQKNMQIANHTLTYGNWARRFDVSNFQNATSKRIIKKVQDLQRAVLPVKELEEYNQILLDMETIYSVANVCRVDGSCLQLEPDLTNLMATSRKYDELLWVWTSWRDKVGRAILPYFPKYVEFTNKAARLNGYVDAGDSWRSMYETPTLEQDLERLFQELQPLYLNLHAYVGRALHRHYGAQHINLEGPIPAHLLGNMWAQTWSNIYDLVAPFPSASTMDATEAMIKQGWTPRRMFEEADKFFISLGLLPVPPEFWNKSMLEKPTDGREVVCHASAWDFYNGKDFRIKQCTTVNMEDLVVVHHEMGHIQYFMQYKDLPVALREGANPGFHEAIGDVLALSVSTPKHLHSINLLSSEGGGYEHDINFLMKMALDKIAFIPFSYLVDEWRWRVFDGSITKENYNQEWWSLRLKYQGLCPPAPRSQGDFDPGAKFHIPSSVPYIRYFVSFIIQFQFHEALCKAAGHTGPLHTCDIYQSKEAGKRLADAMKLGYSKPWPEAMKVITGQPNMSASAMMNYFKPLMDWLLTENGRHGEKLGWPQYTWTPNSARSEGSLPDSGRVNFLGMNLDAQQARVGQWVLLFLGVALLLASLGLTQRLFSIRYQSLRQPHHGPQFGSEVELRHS
Assay: on-chip ACE inhibition assay (FAPGG hydrolysis, absorbance decrease 340 nm)
Assay type: biochemical
Method: To enhance the performance of the on-chip assay, experimental parameters such as concentrations of enzymes and substrates, substrate reaction time, and incubation time of samples and enzymes were stepwise optimized.
The optimized protocol was first applied to assess the quality of 11 batches of QSYQ intermediates (Table 1). Enzyme inhibition (in percentages) was employed as an indicator of drug quality and calculated according to the following equations: thrombin inhibition (%) = [1 − (AQSYQ/Ablank)] × 100; ACE inhibition (%) = [1 − (ΔAQSYQ/ΔAblank)] × 100; where AQSYQ and Ablank were the absorbance of the test sample and the blank sample after the enzymatic reaction (the background value was subtracted), and ΔAQSYQ and ΔAblank were the absorbance decrease between 0 min and 30 min of the samples.
Thrombin (from human plasma), ACE (from rabbit lung), FAPGG and captopril were purchased from Sigma-Aldrich (St. Louis, USA). […] AEBSF-HCl was purchased from Selleckchem (Houston, USA). Trizma base (Tris) was obtained from Sangon Biotech (Shanghai, China) and dimethyl sulfoxide (DMSO) from J&K Scientific (Beijing, China). All other chemicals were purchased from Sinopharm Chemical (Shanghai, China) unless otherwise indicated. 0.2 M Phosphate buffer (PB, pH 6.5), and 50 mM Tris-HCl buffer (200 mM NaCl, pH 8.3) were prepared as assay buffers for thrombin and ACE, respectively.
MBs (10 mg/mL) were diluted 10 times in PB or Tris-HCl buffer, and 10 μL of the diluted MBs (1 mg/mL) were injected into one channel of the chip using a syringe infusion pump (Harvard Apparatus, USA) and retained by an external magnet. Then, 10 μL of thrombin or ACE solution was added and incubated with MBs for two hours at room temperature to form enzyme-MB complexes. The magnet was manually controlled to move MBs back and forth to enhance the ratio of reaction. Subsequently, MBs were washed twice in assay buffer and magnetically transferred to the other channel through the fluidic bridge, whose opening and closing was controlled by a pneumatic valve. Next, 10 μL of sample solutions of tested drug and 10 μL of enzymatic substrate were sequentially infused to the channel by the pump and incubated with the enzyme. When the enzymatic reaction was finished, the MBs were retained in the channel, and air was injected into the channel from the inlet using a syringe to push all the reacted solution to a 384-well plate. […] Moreover, after detection, the reaction channel was washed three times by assay buffer to remove unbound constituents. 20 μL of 80% aqueous methanol was then injected and incubated with MBs for one hour to dissociate the bound constituents. The resulting solutions of replicates were combined, evaporated by a centrifugal evaporator, reconstituted in 80% aqueous methanol, centrifuged at 10,000 rpm for 10 min, and analyzed by LC-MS for chemical identification.

ACE inhibition (in words) (at tested concentrations): showed ACE inhibitions
inhibition rate (for ACE, maximum inhibition rate observed in the assay): 64.2%
SMILES: O=C(O)C(O)Cc1ccc(O)c(O)c1 (centres unmarked) [Danshensu]
